Organism: Rattus norvegicus
Assay: Half-maximal effective dose for inducing [Ca2+] release from rat brain microsomes
Format: functional

N=c1c2ncn3c2ncn1[C@@H]1O[C@H](COP(=O)(O)OP(=O)(O)OP(=O)(O)OC[C@H]2O[C@@H]3[C@H](O)[C@@H]2O)[C@@H](O)[C@H]1O
ED50: 800 nM
